The term TGI denotes the concentration giving total growth inhibition. Read a low TGI as more potent growth arrest. As a reminder, the GI50 is the concentration giving 50% growth inhibition.

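The compound was tested at five concentrations on cells cultured in 96-well plates, with a 48-hour exposure period. Here, GI50 denotes the concentration required for 50% inhibition of growth. The concentration for full growth arrest is given as TGI.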 A value given as a limit tells only on which side of the number the result lay.

In the first assay the test system is M14 melanoma. The assay is described as follows: DTP human tumour cell line panel, 48 h.
`O=c1cc(-c2ccccc2)oc2cc(OCCCOc3ccc4c(=O)cc(-c5ccccc5)oc4c3)ccc12`: the TGI was over 100 µM.

In turn, `COc1cc2c(c(OC)c1OC)-c1ccc(OC)c(=O)cc1C(NC(=O)c1ccc(N=[N+]=[N-])cc1)CC2` (configuration not stated) displayed a TGI of 31.2 µM. This lies in the double-digit micromolar range.

For the compound `Cc1ccc(S(=O)(=O)Nc2ccccc2C(=O)c2ccc(C)c(C)c2)cc1`, the concentration for total growth inhibition (TGI) was over 100 µM.

With `CC(C)=Cc1cc(C(=O)Nc2ccc(Cl)c(Cl)c2)nc(N)n1`, the TGI was over 100 µM.

With `Cn1cnc([N+](=O)[O-])c1Sc1nc2ccccc2[nH]1`, the TGI stood at 56.3 µM.

With `COc1cc(NCc2ccc3oc(=O)c(-c4ccccc4)nc3c2)cc(OC)c1OC`, the TGI is over 10 µM.

In turn, `O=S(=O)(CCn1c(Sc2ccccc2)c(Sc2ccccc2)c2ccccc21)c1ccccc1` showed a concentration for total growth inhibition (TGI) of over 100 µM.

Consider `O=C(Nc1ccc(Cl)cc1)c1cccc(NC2=C(Cl)C(=O)N(Cc3ccccc3)C2=O)c1`, for which the GI50 was 14.5 µM and the TGI was found to be 72.8 µM.

`OCC#Cc1ccccc1C#Cc1ccccc1`: the GI50 was 10.6 µM and the total growth inhibition concentration (TGI) was 22.5 µM.

For the compound `CC(=O)[C@@]12O[C@@H]1CC1C3CCC4=CC(O)CCC4(C)C3CCC12C` (some centres not stated), the GI50 is 95.9 µM and the TGI is over 100 µM.

Turning to `CCOC(=O)NC(=O)c1cn(CCCO)c(=O)[nH]c1=O`, the TGI is over 100 µM.

`CN(C)c1nc(=Nc2ccc(N=c3nc(N(C)C)ss3)cc2)ss1` came in with a TGI of 25.6 µM.

In turn, `COc1cc(OC)cc(-c2cc(=O)c3c(OC)c(OC)c(OC)c(OC)c3o2)c1` showed a TGI of over 100 µM.

In turn, `CSc1nc(NC2OCC(OC(C)=O)C(OC(C)=O)C2OC(C)=O)c(N=CC=Nc2c(NC3OCC(OC(C)=O)C(OC(C)=O)C3OC(C)=O)nc(SC)[nH]c2=O)c(=O)[nH]1` (configuration not stated) came in with a total growth inhibition concentration (TGI) of over 100 µM.

Turning to `CCc1cc(Cc2cc(CC)c(NC(=O)C(=O)Cc3ccccn3)c(CC)c2Cl)c(Cl)c(CC)c1NC(=O)C(=O)Cc1ccccn1`, the TGI was over 100 µM.

The compound `C[Si](C)(C)C1(Sc2ccccc2)SCCCS1` showed a TGI of over 100 µM.

Consider `O=C(CSc1ccc(Cl)cc1)Nc1ccc(-c2nc3ccccc3s2)c(Cl)c1`, for which the GI50 is 4.87 µM and the TGI came to 33.8 µM.

In the case of `ClCc1cccc(Cn2cnc3ncnc(Cl)c32)c1`, the GI50 is 3.05 µM and the TGI came out at 14.6 µM.

Compound `CCOC(=O)C(=C=C=C(c1ccccc1)c1ccccc1)C(=O)OCC` displayed a TGI of 41.5 µM.

In the case of `C/C(=N\NC(=S)NC(CCC(=O)O)C(=O)O)c1ccccn1` (configuration not stated), the TGI was over 100 µM.

Consider `Cc1c2c(nn1-c1ccc(S(=O)(=O)/N=C3\SCCC(=O)N3c3ccccc3)cc1)-c1ccccc1CC2`, for which the GI50 is over 100 µM and the TGI is over 100 µM.

`CC(=O)/C(=C\c1cccc([N+](=O)[O-])c1)C(=O)Nc1ccccc1C` came in with a total growth inhibition concentration (TGI) of over 100 µM.

Another assay concerns SF-539 CNS. Nature of the assay: DTP human tumour cell line panel, 48 h.
On to `O=c1cc(-c2ccccc2)oc2cc(OCCCOc3ccc4c(=O)cc(-c5ccccc5)oc4c3)ccc12`, for which the total growth inhibition concentration (TGI) was over 100 µM.

Turning to `COc1cc2c(c(OC)c1OC)-c1ccc(OC)c(=O)cc1C(NC(=O)c1ccc(N=[N+]=[N-])cc1)CC2` (configuration not stated), the TGI came out at 0.0611 µM. In other words, the double-digit nanomolar range.

Regarding `Cc1ccc(S(=O)(=O)Nc2ccccc2C(=O)c2ccc(C)c(C)c2)cc1`, the TGI is over 100 µM.

The compound `CC(C)=Cc1cc(C(=O)Nc2ccc(Cl)c(Cl)c2)nc(N)n1` showed a TGI of over 100 µM.

With `Cn1cnc([N+](=O)[O-])c1Sc1nc2ccccc2[nH]1`, the TGI is 27.8 µM.

Take `COc1ccc([C@H]2[C@@H](F)C(=O)N2c2cc(OC)c(OC)c(OC)c2)cc1F`: the GI50 is 0.028 µM and the TGI amounted to 0.217 µM.

On to `COc1cc(NCc2ccc3oc(=O)c(-c4ccccc4)nc3c2)cc(OC)c1OC`, for which the TGI was over 10 µM.

`O=S(=O)(CCn1c(Sc2ccccc2)c(Sc2ccccc2)c2ccccc21)c1ccccc1`: the TGI is over 100 µM.

For the compound `O=C(Nc1ccc(Cl)cc1)c1cccc(NC2=C(Cl)C(=O)N(Cc3ccccc3)C2=O)c1`, the GI50 was 4.18 µM and the TGI was found to be 19.1 µM.

On to `CC(=O)[C@@]12O[C@@H]1CC1C3CCC4=CC(O)CCC4(C)C3CCC12C` (some centres not stated), for which the GI50 was 39 µM and the TGI is over 100 µM.

On to `CCOC(=O)NC(=O)c1cn(CCCO)c(=O)[nH]c1=O`, for which the TGI was over 100 µM.

`CN(C)c1nc(=Nc2ccc(N=c3nc(N(C)C)ss3)cc2)ss1` returned a TGI of over 100 µM.

In turn, `COc1cc(OC)cc(-c2cc(=O)c3c(OC)c(OC)c(OC)c(OC)c3o2)c1` displayed a TGI of over 100 µM.

The compound `CSc1nc(NC2OCC(OC(C)=O)C(OC(C)=O)C2OC(C)=O)c(N=CC=Nc2c(NC3OCC(OC(C)=O)C(OC(C)=O)C3OC(C)=O)nc(SC)[nH]c2=O)c(=O)[nH]1` (configuration not stated) returned a TGI of over 86.4 µM.

`CCc1cc(Cc2cc(CC)c(NC(=O)C(=O)Cc3ccccn3)c(CC)c2Cl)c(Cl)c(CC)c1NC(=O)C(=O)Cc1ccccn1` yielded a TGI of over 100 µM.

In turn, `C[Si](C)(C)C1(Sc2ccccc2)SCCCS1` returned a TGI of 75.2 µM.

With `O=C(CSc1ccc(Cl)cc1)Nc1ccc(-c2nc3ccccc3s2)c(Cl)c1`, the GI50 was 14.5 µM and the TGI was 32.7 µM.

For the compound `ClCc1cccc(Cn2cnc3ncnc(Cl)c32)c1`, the GI50 is 19.9 µM and the TGI was 36 µM.

As for `CCOC(=O)C(=C=C=C(c1ccccc1)c1ccccc1)C(=O)OCC`, the TGI worked out at 33.8 µM. This counts as double-digit micromolar.

In turn, `C/C(=N\NC(=S)NC(CCC(=O)O)C(=O)O)c1ccccn1` (configuration not stated) gave a total growth inhibition concentration (TGI) of over 100 µM.

With `COc1cc(/C=C2\CN(S(=O)(=O)c3ccccc3)C/C(=C\c3cc(CN4CCCC4)c(O)c(OC)c3)C2=O)cc(CN2CCCC2)c1O`, the GI50 is 1.64 µM and the TGI turned out to be 3.31 µM.

The compound `CC(=O)/C(=C\c1cccc([N+](=O)[O-])c1)C(=O)Nc1ccccc1C` came in with a TGI of over 100 µM.

A further assay has as its system IGROV1 ovarian. Nature of the assay: DTP human tumour cell line panel, 48 h.
On to `O=c1cc(-c2ccccc2)oc2cc(OCCCOc3ccc4c(=O)cc(-c5ccccc5)oc4c3)ccc12`, for which the TGI is over 100 µM.

Turning to `COc1cc2c(c(OC)c1OC)-c1ccc(OC)c(=O)cc1C(NC(=O)c1ccc(N=[N+]=[N-])cc1)CC2` (configuration not stated), the TGI is over 100 µM.

`Cc1ccc(S(=O)(=O)Nc2ccccc2C(=O)c2ccc(C)c(C)c2)cc1`: the TGI is over 100 µM.

`CC(C)=Cc1cc(C(=O)Nc2ccc(Cl)c(Cl)c2)nc(N)n1` had a total growth inhibition concentration (TGI) of over 100 µM.

`Cn1cnc([N+](=O)[O-])c1Sc1nc2ccccc2[nH]1`: the TGI was 54.4 µM.

In the case of `COc1ccc([C@H]2[C@@H](F)C(=O)N2c2cc(OC)c(OC)c(OC)c2)cc1F`, the GI50 is 0.0946 µM and the TGI is over 100 µM.

Consider `COc1cc(NCc2ccc3oc(=O)c(-c4ccccc4)nc3c2)cc(OC)c1OC`, for which the TGI was over 10 µM.

For `O=S(=O)(CCn1c(Sc2ccccc2)c(Sc2ccccc2)c2ccccc21)c1ccccc1`, the concentration for total growth inhibition (TGI) is over 100 µM.

For `O=C(Nc1ccc(Cl)cc1)c1cccc(NC2=C(Cl)C(=O)N(Cc3ccccc3)C2=O)c1`, the GI50 was 2.61 µM and the TGI was found to be 18.1 µM.

For the origin of these results see PubChem BioAssay (NCI).
